Laboratory results taken from patent US20100167925A1, “Substituted Azolin-2-yl-Amino Compounds” (BASF SE, priority 2006, published 2010).

Assays:
[1] = tested on: Aphis gossypii; assay: Cotton aphid (Aphis gossypii) mortality on dipped cotton plants; type: in vivo; conditions: 120 h, cotton plants in cotyledon stage dipped into test solution, aphid mortality determined after 5 days, read-out: mortality in comparison with untreated controls
Procedure: I. Cotton Aphid (Aphis gossypii)
(§1) Cotton plants in the cotyledon stage (variety ‘Delta Pine’) are infested with approximately 100 laboratory-reared aphids by placing infested leaf sections on top of the test plants. The leaf sections are removed after 24 hours. The cotyledons of the intact plants are dipped into gradient solutions of the test compound. Aphid mortality on the treated plants, relative to mortality on check plants, is determined after 5 days.

[2] = tested on: Myzus persicae; assay: Green peach aphid (Myzus persicae) mortality on dipped pepper plants; type: in vivo; conditions: 120 h, pepper plants in 2nd leaf-pair stage dipped into test solution, aphid mortality determined after 5 days, read-out: mortality in comparison with untreated controls
Procedure: I.b. Green Peach Aphid (Myzus persicae)
as §1, with “Pepper” for “Cotton”, “2nd leaf-pair” for “cotyledon”, “‘California Wonder’)” for “‘Delta Pine’)”, “40” for “100”, “leaves” for “cotyledons”

SMILES | melting point [°C] | mortality at 300 ppm [1] [%] | mortality at 300 ppm [2] [%]
CC1(C)Cc2ccccc2C1N=C1SCCN1C1=NCCS1 (stereo not drawn) | 161 to 163 | – | –
CC1(C)Cc2ccccc2C1NC1=NCCS1 (stereo not drawn) [Example 22, (4,5-Dihydro-thiazol-2-yl)-(2,2-dimethyl-indan-1-yl)-amine] | – | > 70 | > 70
